This note sets out measurements from ChEMBL document CHEMBL1152560, “Substituted 2-arylbenzothiazoles as kinase inhibitors: hit-to-lead optimization” (Bioorg Med Chem, 2009).

Test [1] concerns the target Tyrosine-protein kinase CSK (Homo sapiens) (UniProt P41240). Nature of the test: Residual activity of CSK at 10 uM by microplate scintillation counting.
Test [2] has as its target T1, Serine/threonine-protein kinase 4 (Homo sapiens) (UniProt Q13043).
T1 sequence (whole entry): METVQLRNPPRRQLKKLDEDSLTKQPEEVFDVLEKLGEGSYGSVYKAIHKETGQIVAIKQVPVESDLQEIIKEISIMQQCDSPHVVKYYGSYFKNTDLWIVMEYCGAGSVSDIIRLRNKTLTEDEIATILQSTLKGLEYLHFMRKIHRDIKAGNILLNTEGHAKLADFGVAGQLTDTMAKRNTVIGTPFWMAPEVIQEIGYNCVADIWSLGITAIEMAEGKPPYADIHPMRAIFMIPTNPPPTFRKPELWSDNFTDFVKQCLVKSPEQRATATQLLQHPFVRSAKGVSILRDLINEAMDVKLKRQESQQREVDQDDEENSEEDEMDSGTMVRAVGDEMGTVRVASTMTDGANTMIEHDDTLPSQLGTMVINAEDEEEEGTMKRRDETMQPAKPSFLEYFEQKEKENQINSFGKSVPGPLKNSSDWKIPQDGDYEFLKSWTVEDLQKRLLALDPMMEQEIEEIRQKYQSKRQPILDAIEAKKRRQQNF
Nature of the test: Residual activity of MST1 at 1 uM by microplate scintillation counting.

Test [3] addresses ALK tyrosine kinase receptor (Homo sapiens) (UniProt Q9UM73). Kind of test: Residual activity of ALK at 10 uM by microplate scintillation counting.
For test [4], the target named is Tyrosine-protein kinase Fyn (Homo sapiens) (UniProt P06241). Kind of test: Residual activity of FYN at 10 uM by microplate scintillation counting.
The target in test [5] is Proto-oncogene tyrosine-protein kinase ROS (Homo sapiens) (UniProt P08922). Nature of the test: Residual activity of ROS at 1 uM by microplate scintillation counting.
Test [6] concerns the target Fibroblast growth factor receptor 2 (Homo sapiens) (UniProt P21802). Nature of the test: Residual activity of FGFR2 at 10 uM by microplate scintillation counting.
The target in test [7] is T2, Activin receptor type-1B (Homo sapiens) (UniProt P36896).
T2 sequence (whole entry): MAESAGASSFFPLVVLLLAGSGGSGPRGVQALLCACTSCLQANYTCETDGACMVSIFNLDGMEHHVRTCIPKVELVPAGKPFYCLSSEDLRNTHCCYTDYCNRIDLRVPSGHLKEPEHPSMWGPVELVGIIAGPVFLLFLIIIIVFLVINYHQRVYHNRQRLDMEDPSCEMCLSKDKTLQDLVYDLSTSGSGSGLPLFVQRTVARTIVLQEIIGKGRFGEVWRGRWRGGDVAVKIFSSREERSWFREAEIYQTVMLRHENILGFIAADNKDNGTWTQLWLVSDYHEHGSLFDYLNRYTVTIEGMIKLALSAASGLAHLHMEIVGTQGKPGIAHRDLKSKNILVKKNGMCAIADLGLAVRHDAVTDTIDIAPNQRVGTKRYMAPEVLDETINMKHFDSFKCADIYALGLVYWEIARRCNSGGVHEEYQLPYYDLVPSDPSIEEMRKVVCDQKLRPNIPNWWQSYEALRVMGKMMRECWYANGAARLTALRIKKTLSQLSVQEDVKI
Kind of test: Residual activity of ACVR1B at 1 uM by microplate scintillation counting.

For test [8], the target named is Fibroblast growth factor receptor 4 (Homo sapiens) (UniProt P22455). Nature of the test: Residual activity of FGFR4 at 10 uM by microplate scintillation counting.
Test [9] addresses Ribosomal protein S6 kinase alpha-6 (Homo sapiens) (UniProt Q9UK32). Nature of the test: Residual activity of RPS6KA6 at 0.1 uM by microplate scintillation counting.
The target of test [10] is Death-associated protein kinase 2 (Homo sapiens) (UniProt Q9UIK4). Kind of test: Residual activity of DAPK2 at 10 uM by microplate scintillation counting.
Test [11] has as its target NT-3 growth factor receptor (Homo sapiens) (UniProt Q16288). Kind of test: Residual activity of TRK-C at 0.1 uM by microplate scintillation counting.
Test [12] addresses Serine/threonine-protein kinase PAK 6 (Homo sapiens) (UniProt Q9NQU5). Kind of test: Residual activity of PAK6 at 1 uM by microplate scintillation counting.
The target of test [13] is Protein kinase C beta type (Homo sapiens) (UniProt P05771). Kind of test: Residual activity of PKCbeta1 at 10 uM by microplate scintillation counting.
Test [14] has as its target Serine/threonine-protein kinase PAK 5 (Homo sapiens) (UniProt Q9P286). Nature of the test: Residual activity of PAK7 at 1 uM by microplate scintillation counting.
Test [15] has as its system T3, Dual specificity mitogen-activated protein kinase kinase 6 (Homo sapiens), P52564 [S207D,T211D].
T3 sequence (whole entry): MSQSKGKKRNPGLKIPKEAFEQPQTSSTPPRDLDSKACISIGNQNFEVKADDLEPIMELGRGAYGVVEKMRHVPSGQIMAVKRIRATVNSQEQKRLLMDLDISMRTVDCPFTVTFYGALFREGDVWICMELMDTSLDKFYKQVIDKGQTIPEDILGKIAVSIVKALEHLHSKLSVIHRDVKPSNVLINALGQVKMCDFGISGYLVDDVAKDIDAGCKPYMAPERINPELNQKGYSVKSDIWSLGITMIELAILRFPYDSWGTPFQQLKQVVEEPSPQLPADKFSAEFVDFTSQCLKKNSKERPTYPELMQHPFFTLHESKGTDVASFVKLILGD
Nature of the test: Residual activity of MKK6 S207D/T211D mutant at 0.1 uM by microplate scintillation counting.

For test [16], the target named is Calcium/calmodulin-dependent protein kinase type II subunit delta (Homo sapiens) (UniProt Q13557). Kind of test: Residual activity of CAMK2D at 1 uM by microplate scintillation counting.
In test [17] the target is SRSF protein kinase 3 (Homo sapiens) (UniProt Q9UPE1). Nature of the test: Residual activity of STK23 at 1 uM by microplate scintillation counting.
For test [18], the target named is RAC-gamma serine/threonine-protein kinase (Homo sapiens) (UniProt Q9Y243). Nature of the test: Residual activity of AKT3 at 10 uM by microplate scintillation counting.
Test [19] addresses Tyrosine-protein kinase Yes (Homo sapiens) (UniProt P07947). Kind of test: Residual activity of YES at 1 uM by microplate scintillation counting.

Sequence of Proto-oncogene tyrosine-protein kinase ROS (Homo sapiens) (P08922 whole entry): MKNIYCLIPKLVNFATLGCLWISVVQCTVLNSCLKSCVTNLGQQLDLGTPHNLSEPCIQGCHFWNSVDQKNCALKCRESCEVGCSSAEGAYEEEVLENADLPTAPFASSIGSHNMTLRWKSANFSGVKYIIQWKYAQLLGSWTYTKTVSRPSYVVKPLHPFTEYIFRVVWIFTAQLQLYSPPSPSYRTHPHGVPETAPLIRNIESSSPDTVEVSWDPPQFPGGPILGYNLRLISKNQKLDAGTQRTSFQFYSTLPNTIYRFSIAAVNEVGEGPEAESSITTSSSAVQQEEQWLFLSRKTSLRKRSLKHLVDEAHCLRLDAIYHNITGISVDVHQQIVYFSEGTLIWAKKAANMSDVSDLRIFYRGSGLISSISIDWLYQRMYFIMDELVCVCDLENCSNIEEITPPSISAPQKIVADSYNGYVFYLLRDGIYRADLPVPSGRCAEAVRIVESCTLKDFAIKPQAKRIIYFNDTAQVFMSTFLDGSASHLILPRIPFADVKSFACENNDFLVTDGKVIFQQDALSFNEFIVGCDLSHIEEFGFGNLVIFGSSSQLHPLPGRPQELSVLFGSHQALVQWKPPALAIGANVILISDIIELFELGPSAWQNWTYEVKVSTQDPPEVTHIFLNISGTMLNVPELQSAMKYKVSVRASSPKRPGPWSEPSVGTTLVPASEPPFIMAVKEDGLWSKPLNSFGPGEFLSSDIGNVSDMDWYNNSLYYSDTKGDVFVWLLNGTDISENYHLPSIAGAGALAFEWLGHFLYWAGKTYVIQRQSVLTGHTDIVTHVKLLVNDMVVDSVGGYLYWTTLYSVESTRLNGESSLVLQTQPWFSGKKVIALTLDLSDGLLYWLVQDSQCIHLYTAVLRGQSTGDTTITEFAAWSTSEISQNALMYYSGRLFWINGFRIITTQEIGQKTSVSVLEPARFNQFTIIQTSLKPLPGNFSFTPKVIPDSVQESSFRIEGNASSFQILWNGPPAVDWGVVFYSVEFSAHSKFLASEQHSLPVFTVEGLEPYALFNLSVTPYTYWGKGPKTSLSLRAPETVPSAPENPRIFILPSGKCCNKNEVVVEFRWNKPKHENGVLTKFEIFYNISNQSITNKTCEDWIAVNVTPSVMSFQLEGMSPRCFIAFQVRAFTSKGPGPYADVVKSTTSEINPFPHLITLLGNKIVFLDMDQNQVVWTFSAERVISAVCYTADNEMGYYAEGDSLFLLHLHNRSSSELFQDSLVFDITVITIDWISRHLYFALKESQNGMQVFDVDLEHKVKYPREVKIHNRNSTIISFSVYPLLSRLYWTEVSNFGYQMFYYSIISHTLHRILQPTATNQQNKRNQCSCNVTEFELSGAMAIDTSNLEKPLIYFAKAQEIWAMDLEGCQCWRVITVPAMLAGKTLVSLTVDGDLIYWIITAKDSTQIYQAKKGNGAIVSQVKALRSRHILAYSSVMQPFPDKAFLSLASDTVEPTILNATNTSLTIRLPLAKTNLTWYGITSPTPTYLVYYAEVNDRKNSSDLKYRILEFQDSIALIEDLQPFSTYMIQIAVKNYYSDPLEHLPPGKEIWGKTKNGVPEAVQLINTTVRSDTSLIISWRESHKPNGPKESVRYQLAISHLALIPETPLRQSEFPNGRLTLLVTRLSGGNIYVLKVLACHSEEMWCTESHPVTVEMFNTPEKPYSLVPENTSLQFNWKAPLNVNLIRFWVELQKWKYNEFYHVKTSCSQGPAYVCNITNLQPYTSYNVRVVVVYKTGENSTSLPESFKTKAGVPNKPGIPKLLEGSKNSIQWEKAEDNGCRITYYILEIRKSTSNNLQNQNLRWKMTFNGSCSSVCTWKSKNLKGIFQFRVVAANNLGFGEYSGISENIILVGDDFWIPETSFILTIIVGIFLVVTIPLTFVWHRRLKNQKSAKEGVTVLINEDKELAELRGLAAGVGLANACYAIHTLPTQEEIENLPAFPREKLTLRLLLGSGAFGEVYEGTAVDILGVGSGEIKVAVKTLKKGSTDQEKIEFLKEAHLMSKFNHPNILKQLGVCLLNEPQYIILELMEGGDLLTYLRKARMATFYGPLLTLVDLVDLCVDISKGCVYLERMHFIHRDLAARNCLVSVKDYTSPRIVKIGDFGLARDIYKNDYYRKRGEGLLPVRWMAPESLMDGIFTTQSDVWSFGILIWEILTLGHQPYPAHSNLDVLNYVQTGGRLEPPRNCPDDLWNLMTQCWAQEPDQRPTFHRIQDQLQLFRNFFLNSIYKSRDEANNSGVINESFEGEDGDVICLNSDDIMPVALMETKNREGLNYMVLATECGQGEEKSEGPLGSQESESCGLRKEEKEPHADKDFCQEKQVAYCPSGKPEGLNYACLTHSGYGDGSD
Sequence of SRSF protein kinase 3 (Homo sapiens) (Q9UPE1 whole entry): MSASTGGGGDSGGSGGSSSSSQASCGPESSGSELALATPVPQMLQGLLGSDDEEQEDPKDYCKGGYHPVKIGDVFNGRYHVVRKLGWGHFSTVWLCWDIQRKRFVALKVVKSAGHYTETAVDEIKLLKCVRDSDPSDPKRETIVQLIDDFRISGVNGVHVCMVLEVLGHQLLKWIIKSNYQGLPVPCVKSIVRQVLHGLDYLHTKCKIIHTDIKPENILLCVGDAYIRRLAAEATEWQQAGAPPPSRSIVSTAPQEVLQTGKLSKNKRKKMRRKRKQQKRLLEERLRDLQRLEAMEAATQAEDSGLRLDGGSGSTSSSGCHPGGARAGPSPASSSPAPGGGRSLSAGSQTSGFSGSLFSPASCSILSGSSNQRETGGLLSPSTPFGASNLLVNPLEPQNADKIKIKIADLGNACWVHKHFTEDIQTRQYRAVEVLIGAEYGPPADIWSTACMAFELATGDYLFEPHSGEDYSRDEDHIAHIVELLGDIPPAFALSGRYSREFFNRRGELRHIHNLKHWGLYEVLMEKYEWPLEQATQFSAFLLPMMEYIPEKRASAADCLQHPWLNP
Sequence of Fibroblast growth factor receptor 2 (Homo sapiens) (P21802 22-821 limits assumed): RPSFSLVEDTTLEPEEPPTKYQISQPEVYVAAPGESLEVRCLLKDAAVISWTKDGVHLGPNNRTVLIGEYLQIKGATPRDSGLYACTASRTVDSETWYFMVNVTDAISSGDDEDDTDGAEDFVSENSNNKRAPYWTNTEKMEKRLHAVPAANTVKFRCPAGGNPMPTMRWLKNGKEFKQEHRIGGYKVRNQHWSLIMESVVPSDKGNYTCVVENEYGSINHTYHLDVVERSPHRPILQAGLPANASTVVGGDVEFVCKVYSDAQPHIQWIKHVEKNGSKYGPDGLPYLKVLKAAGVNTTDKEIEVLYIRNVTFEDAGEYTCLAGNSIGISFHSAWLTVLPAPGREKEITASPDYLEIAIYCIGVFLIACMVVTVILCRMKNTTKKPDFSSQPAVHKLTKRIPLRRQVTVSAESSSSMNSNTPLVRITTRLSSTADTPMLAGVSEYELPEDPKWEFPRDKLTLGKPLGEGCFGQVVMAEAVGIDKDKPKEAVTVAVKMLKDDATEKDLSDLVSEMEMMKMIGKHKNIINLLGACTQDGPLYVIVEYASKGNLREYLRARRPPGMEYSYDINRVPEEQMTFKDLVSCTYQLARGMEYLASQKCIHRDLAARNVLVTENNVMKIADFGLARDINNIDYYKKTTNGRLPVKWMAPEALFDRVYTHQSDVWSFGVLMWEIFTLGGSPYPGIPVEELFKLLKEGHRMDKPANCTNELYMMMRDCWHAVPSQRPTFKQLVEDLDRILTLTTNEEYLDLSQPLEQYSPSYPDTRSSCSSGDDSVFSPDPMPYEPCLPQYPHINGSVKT
Sequence of Tyrosine-protein kinase CSK (Homo sapiens) (P41240 2-450 limits assumed): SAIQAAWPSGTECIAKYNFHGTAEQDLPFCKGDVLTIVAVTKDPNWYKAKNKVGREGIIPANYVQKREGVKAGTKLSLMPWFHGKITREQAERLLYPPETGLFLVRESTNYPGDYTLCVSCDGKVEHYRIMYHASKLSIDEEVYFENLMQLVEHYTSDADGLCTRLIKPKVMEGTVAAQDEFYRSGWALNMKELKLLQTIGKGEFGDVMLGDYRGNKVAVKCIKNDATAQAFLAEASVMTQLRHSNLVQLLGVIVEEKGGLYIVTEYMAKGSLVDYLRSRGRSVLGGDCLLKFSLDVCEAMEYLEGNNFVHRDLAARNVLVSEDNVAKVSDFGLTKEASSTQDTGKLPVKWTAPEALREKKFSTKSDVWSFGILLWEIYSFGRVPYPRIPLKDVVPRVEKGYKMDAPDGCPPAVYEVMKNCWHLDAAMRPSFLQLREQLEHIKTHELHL
Sequence of Calcium/calmodulin-dependent protein kinase type II subunit delta (Homo sapiens) (Q13557 whole entry): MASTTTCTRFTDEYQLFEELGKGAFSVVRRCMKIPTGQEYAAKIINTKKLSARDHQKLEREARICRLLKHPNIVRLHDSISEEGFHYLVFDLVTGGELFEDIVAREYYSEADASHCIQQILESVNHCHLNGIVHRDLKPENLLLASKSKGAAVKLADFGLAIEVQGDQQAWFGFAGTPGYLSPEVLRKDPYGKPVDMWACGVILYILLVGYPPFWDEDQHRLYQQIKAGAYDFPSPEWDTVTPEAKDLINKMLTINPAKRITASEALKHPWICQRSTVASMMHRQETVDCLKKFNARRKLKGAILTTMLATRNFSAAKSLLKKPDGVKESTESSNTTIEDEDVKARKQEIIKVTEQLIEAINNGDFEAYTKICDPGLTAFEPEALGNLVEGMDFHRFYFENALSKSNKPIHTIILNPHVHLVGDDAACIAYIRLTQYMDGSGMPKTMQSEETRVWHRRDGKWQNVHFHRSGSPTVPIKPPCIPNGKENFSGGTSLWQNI
Sequence of Death-associated protein kinase 2 (Homo sapiens) (Q9UIK4 whole entry, looked up): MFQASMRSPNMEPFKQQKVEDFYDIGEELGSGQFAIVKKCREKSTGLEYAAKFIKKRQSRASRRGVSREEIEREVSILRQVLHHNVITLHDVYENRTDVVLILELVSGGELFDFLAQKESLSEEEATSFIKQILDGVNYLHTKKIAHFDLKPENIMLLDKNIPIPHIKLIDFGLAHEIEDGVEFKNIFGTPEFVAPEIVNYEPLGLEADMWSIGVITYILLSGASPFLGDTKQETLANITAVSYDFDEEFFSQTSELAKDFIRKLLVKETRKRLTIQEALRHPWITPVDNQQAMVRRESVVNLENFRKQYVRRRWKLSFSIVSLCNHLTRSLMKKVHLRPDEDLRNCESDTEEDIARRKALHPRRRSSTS

As for `COc1cc2c(Oc3ccc(-c4nc5ccccc5s4)cc3)ncnc2cc1OCCCN1CCN(C)CC1`, the residual activity was 18% in test [1]; 87% in [2]; 329% in test [3]; 56% in test [4]; 97% in test [5]; 136% in test [6]. For the same compound, the residual activity came to 85% in test [7]; 287% in test [8]; 96% in test [9]; 15% in test [10]; 97% in test [11]; 74% in [12]. For the same compound, the residual activity was determined as 81% in test [13]; 77% in [14]; 80% in test [15]; 92% in test [16]; 95% in test [17]; 112% in test [18]. Moreover, in test [19], the residual activity was 68%.
In the case of `COc1cc2c(Oc3ccc(-c4nc5ccccc5s4)cc3)ncnc2cc1OCCCN1CCCC1`, the residual activity in [1] stood at 17%; in test [2], 81%; in test [3] it was 414%; in test [4] it was 70%; in [5], 98%; in test [6], 113%. Also, the residual activity amounted to 96% in [7]; 205% in test [8]; 92% in test [9]; 20% in test [10]; 109% in test [11]; 109% in test [12]. In addition, the residual activity worked out at 73% in test [13]; 83% in test [14]; 72% in test [15]; 96% in test [16]; 83% in [17]; 79% in test [18]. Also, the residual activity in test [19] was found to be 84%.
Take `COc1cc2c(Oc3ccc(-c4nc5ccccc5s4)cc3F)ncnc2cc1OCCCN1CCN(C)CC1`: the residual activity came out at 3% in test [1]; 101% in test [2]; 180% in [3]; 10% in [4]; 102% in [5]; 86% in test [6]. In addition, the residual activity came out at 89% in [7]; 118% in test [8]; 95% in test [9]; 16% in test [10]; 110% in test [11]; 90% in test [12]. Also, the residual activity in test [13] turned out to be 57%; in test [14], 83%; in [15], 95%; in test [16] it was 97%; in test [17], 87%; in [18], 113%. In [19], the residual activity came out at 49%.
